Results from patent publication US12161115B2, “Herbicidal compounds” (SYNGENTA CROP PROTECTION AG, priority 2019, dated 2024).

Legend:
Assay type in all cases: in vivo
barley crop plants = experiment: Crop phytotoxicity comparison, post-emergence
Experimental: (§1) Seeds of a variety of test species are sown in standard soil in pots (Lolium perenne (LOLPE), Setaria faberi (SETFA), Alopecurus myosuroides (ALOMY), Echinochloa crus-galli (ECHCG), Avena fatua (AVEFA)). After cultivation for one day (pre-emergence) or after 8 days cultivation (post-emergence) under controlled conditions in a glasshouse (at 24/16° C., day/night; 14 hours light; 65% humidity), the plants are sprayed with an aqueous spray solution derived from the formulation of the technical active ingredient in acetone/water (50:50) solution containing 0.5% Tween 20 (polyoxyethelyene sorbitan monolaurate, CAS RN 9005-64-5). Compounds are applied at 250 g/h. The test plants are then grown in a glasshouse under controlled conditions in a glasshouse (at 24/16° C., day/night; 14 hours light; 65% humidity) and watered twice daily. After 13 days for pre and post-emergence, the test is evaluated for the percentage damage caused to the plant. The biological activities are shown in the following table on a five point scale (5=80-100%; 4=60-79%; 3=40-59%; 2=20-39%; 1=0-19%). NT=not tested.
(§2) Using procedures outlines above, wheat and barley crop plants are treated, post-emergence with compounds A1, A3 or A8 of the present invention or comparator compound C1 (Compound A-38 from WO2014/096289) at the application rates indicated. The compounds were also applied in conjunction with the safener compound cloquintocet-mexyl (CQC) at 50 g/ha.

wheat crop plants = experiment: Crop phytotoxicity comparison, post-emergence
Experimental: as §1, §2

[1] = tested on: Alopecurus myosuroides (ALOMY); experiment: Pre-emergence herbicidal glasshouse test; details: 250 g/Ha, evaluated after 13 days
Experimental: as §1

[2] = tested on: Echinochloa crus-galli (ECHCG); experiment: Pre-emergence herbicidal glasshouse test; details: 250 g/Ha, evaluated after 13 days
Experimental: as §1

Avena fatua (AVEFA) [3] = experiment: Pre-emergence herbicidal glasshouse test; details: 250 g/Ha, evaluated after 13 days
Experimental: as §1

Setaria faberi (SETFA) [4] = experiment: Pre-emergence herbicidal glasshouse test; details: 250 g/Ha, evaluated after 13 days
Experimental: as §1

Lolium perenne (LOLPE) [5] = experiment: Pre-emergence herbicidal glasshouse test; details: 250 g/Ha, evaluated after 13 days
Experimental: as §1

[6] = tested on: Alopecurus myosuroides (ALOMY); experiment: Post-emergence herbicidal glasshouse test; details: 250 g/Ha, evaluated after 13 days
Experimental: as §1

[7] = tested on: Echinochloa crus-galli (ECHCG); experiment: Post-emergence herbicidal glasshouse test; details: 250 g/Ha, evaluated after 13 days
Experimental: as §1

Avena fatua (AVEFA) [8] = experiment: Post-emergence herbicidal glasshouse test; details: 250 g/Ha, evaluated after 13 days
Experimental: as §1

Setaria faberi (SETFA) [9] = experiment: Post-emergence herbicidal glasshouse test; details: 250 g/Ha, evaluated after 13 days
Experimental: as §1

Lolium perenne (LOLPE) [10] = experiment: Post-emergence herbicidal glasshouse test; details: 250 g/Ha, evaluated after 13 days
Experimental: as §1

[11] = post-emergence, 60 g/ha + safener cloquintocet-mexyl (CQC) at 50 g/ha
[12] = post-emergence, summary of Table B3

Row | SMILES | % phytotoxicity observed, Barley (barley crop plants; post-emergence, 30 g/ha) | % phytotoxicity observed, Barley (barley crop plants; post-emergence, 60 g/ha) | % phytotoxicity observed, Wheat (wheat crop plants; post-emergence, 30 g/ha) | % phytotoxicity observed, Wheat (wheat crop plants; post-emergence, 60 g/ha) | % phytotoxicity observed, Wheat (wheat crop plants; [11]) | damage to barley crop compared to prior art compound C1 (barley crop plants; in vivo) | damage to wheat crop compared to prior art compound C1 (wheat crop plants; in vivo) | percentage damage caused to the plant, five point scale, ALOMY [1] | percentage damage caused to the plant, five point scale, ECHCG [2] | percentage damage caused to the plant, five point scale, AVEFA (Avena fatua (AVEFA) [3]) | percentage damage caused to the plant, five point scale, SETFA (Setaria faberi (SETFA) [4]) | percentage damage caused to the plant, five point scale, LOLPE (Lolium perenne (LOLPE) [5]) | percentage damage caused to the plant, five point scale, ALOMY [6] | percentage damage caused to the plant, five point scale, ECHCG [7] | percentage damage caused to the plant, five point scale, AVEFA (Avena fatua (AVEFA) [8]) | percentage damage caused to the plant, five point scale, SETFA (Setaria faberi (SETFA) [9]) | percentage damage caused to the plant, five point scale, LOLPE (Lolium perenne (LOLPE) [10]) | damage to barley crop compared to prior art compound C1 (barley crop plants; [12]) | damage to wheat crop compared to prior art compound C1 (wheat crop plants; [12])
1 | CC#Cc1cc(C)c(C2C(=O)CC3(CCOCC3)CC2=O)c(C)c1 [Compound C1, reference compound] | 80% | 90% | 40% | 70% | 60% |  |  |  |  |  |  |  |  |  |  |  |  |  | 
2 | CC#Cc1cc(C)c(C2C(=O)CC3(CCN(C(=O)/C=N/OC)CC3)CC2=O)c(C)c1 [Compound A3, 9-(2,6-dimethyl-4-prop-1-ynyl-phenyl)-3-[(2E)-2-methoxyiminoacetyl]-3-azaspiro[5.5]undecane-8,10-dione] |  |  |  |  |  | significantly less damaging | significantly less damaging | 4 (4=60-79%) | 5 (5=80-100%) | 5 (5=80-100%) | 5 (5=80-100%) | 5 (5=80-100%) | 5 (5=80-100%) | 5 (5=80-100%) | 5 (5=80-100%) | 5 (5=80-100%) | 5 (5=80-100%) |  | 
3 | CC#Cc1cc(C)c(C2C(=O)CC3(CCN(C(=O)C(C)=NOC)CC3)CC2=O)c(C)c1 [Compound A1, 9-(2,6-dimethyl-4-prop-1-ynyl-phenyl)-3-(2-methoxyiminopropanoyl)-3-azaspiro[5.5]undecane-8,10-dione] | 20% | 40% | 10% | 20% | 0% |  |  | 5 (5=80-100%) | 5 (5=80-100%) | 5 (5=80-100%) | 5 (5=80-100%) | 5 (5=80-100%) | 5 (5=80-100%) | 5 (5=80-100%) | 5 (5=80-100%) | 5 (5=80-100%) | 5 (5=80-100%) | significantly less damaging | significantly less damaging
